A short description of series [1]: physchem.
Series [2] is described as follows: physchem. To be noted: octan-1-ol/water.
A short description of series [3]: in vitro. To be noted: human, plasma.
Series [4] in a line: in vitro. To be noted: Beagle, dog, plasma.
A short description of series [5]: in vitro. To be noted: human.
Series [6] can be described thus: physchem. To be noted: pH 7.4 buffer.
The nature of series [7]: in vitro. To be noted: SD, HW or BN, rat, plasma.
Series [8] is described as follows: in vitro. To be noted: hepatocytes.
Series [9] in a line: in vitro. To be noted: human, hepatocytes.

In brackets after ≈: the same amount, converted by molar mass.

With `Cc1n[nH]c(C)c1Cc1sc2c(c1C(=O)N1C[C@H](O)CO1)c(=O)n(C)c(=O)n2CC(C)C`, the pKa (in general, the pH at which an ionisable group is half protonated) in “physchem [1]” was determined as 3.4. Besides, the logD – broadly, lipophilicity at a set pH, counting ionised and neutral species – in the series “physchem [2]” (pH 7.4, LogD7.4) was 1.07. For the same compound, the free fraction (fraction unbound) – broadly, the share of the substance not bound to proteins or other matrix – at 5 h in “in vitro [3]” (PPB) was 0.489; in the series “in vitro [4]”, 0.656. In “in vitro [5]” (liver microsomes), the microsomal CLint (as a rule, the rate of metabolic loss divided by the concentration) stood at 4 µL/min/mg.

For the compound `COC(=O)C1=C(C)NC(C)=C(C(=O)OCCN(C)Cc2ccccc2)C1c1cccc([N+](=O)[O-])c1` (stereo not drawn) [NICARDIPINE], in the series “physchem [1]”, the pKa turned out to be 7.26. In the series “physchem [6]”, the solubility (thermodynamic) – broadly, the concentration in solution at equilibrium with solid – was 7.4 µM (≈ 3.55 µg/mL). Also, the fraction unbound at 5 h in the series “in vitro [7]” was 0.0039; in “in vitro [4]”, 0.004.

`COc1ccnc(NC2CCN(C(=O)c3ccc(C#N)cc3)CC2)c1`: the pKa in “physchem [1]” was found to be 7.1. The same compound gave a log distribution coefficient (logD) in “physchem [2]” (pH 7.4, LogD7.4) of 1.73. The compound also gave a fraction unbound at 5 h in “in vitro [4]” of 0.0532.

Regarding `C[C@H]1CN(Cc2cc(Cl)ccc2OCC(=O)O)CCN1C(=O)Cc1ccc(Cl)cc1`, the fraction unbound at 5 h was 0.0187 in “in vitro [3]”, 0.0383 in the series “in vitro [7]” and 0.0262 in “in vitro [4]”. Besides, the microsomal CLint in “in vitro [5]” (liver microsomes) was < 3 µL/min/mg. Besides, the intrinsic metabolic clearance (hepatocyte CLint) in “in vitro [8]” and in “in vitro [9]” was < 3 µL/min/1e6 cells throughout.

In turn, `CCCc1nc2c(C)cc(-c3nc4ccccc4n3C)cc2n1Cc1ccc(-c2ccccc2C(=O)O)cc1` displayed a logD in the series “physchem [2]” (pH 7.4, LogD7.4) of 2.21. In addition, the results for the fraction unbound at 5 h in the series “in vitro [3]” (PPB), in the series “in vitro [7]” and in “in vitro [4]” were 0.0077, 0.0038 and 0.0175, respectively. The intrinsic metabolic clearance (microsomal CLint) in the series “in vitro [5]” (liver microsomes) was < 3 µL/min/mg. Further, in the series “in vitro [9]”, the intrinsic clearance (hepatocyte CLint) (commonly the capacity of the preparation to metabolise the compound, expressed as a volume cleared per time) was determined as 3.98 µL/min/1e6 cells.

For the compound `CCCC(=O)Nc1ccc(OCC(O)CNC(C)C)c(C(C)=O)c1` (stereo not drawn) [ACEBUTOLOL], in “physchem [1]”, the pKa is 9.45. In addition, the unbound share (fraction unbound) at 5 h in “in vitro [7]” was 0.711; in the series “in vitro [4]”, 0.788.

The compound `N#Cc1ccc(C(F)(F)F)nc1O[C@H](CCN)c1ccno1` gave a pKa in “physchem [1]” of 9.5. The log distribution coefficient (logD) in “physchem [2]” (pH 7.4, LogD7.4) was -0.49. Besides, the free fraction (fraction unbound) at 5 h is 0.557 in “in vitro [3]” (PPB) and 0.535 in “in vitro [4]”.

Turning to `CCN(C(=O)c1cnn(-c2ccccc2)c1NS(=O)(=O)c1ccc(-c2cnco2)cc1)C1CCCCC1`, the pH-dependent lipophilicity (logD) in the series “physchem [2]” (pH 7.4, LogD7.4) was 1.46. In the series “physchem [6]”, this compound registered a solubility (thermodynamic) of 204 µM (≈ 106 µg/mL). Also, the figures for the unbound share (fraction unbound) at 5 h in “in vitro [3]” (PPB), in “in vitro [7]” and in the series “in vitro [4]” were 0.013, 0.0057 and 0.0025, respectively. In addition, the microsomal CLint in the series “in vitro [5]” (liver microsomes) was 137 µL/min/mg. Also, the intrinsic metabolic clearance (hepatocyte CLint) in the series “in vitro [8]” was 35 µL/min/1e6 cells; in “in vitro [9]”, 9.5 µL/min/1e6 cells.

`CC(C)NCC(O)COc1ccc(COCCOC(C)C)cc1` (stereo not drawn) [BISOPROLOL] had a pKa in the series “physchem [1]” of 9.87. In “physchem [2]” (pH 7.4, LogD7.4), this compound gave a log distribution coefficient (logD) of 0.1. For the same compound, the unbound share (fraction unbound) at 5 h in the series “in vitro [7]” was 0.768; in “in vitro [4]” it was 0.743. Further, the hepatocyte CLint in “in vitro [8]” is 25.1 µL/min/1e6 cells.

In “physchem [1]”, `O=C(NCC12CC3CC(CC(C3)C1)C2)c1cc(N2CCNCC2)ncc1Cl` gave a pKa of 8.5. The free fraction (fraction unbound) at 5 h in the series “in vitro [4]” is 0.0736. In the series “in vitro [5]” (liver microsomes), the microsomal CLint is 10 µL/min/mg.

As for `CC[C@H](C)C(=O)O[C@H]1C[C@H](O)C=C2C=C[C@H](C)[C@H](CC[C@@H](O)C[C@@H](O)CC(=O)O)[C@H]21` [PRAVASTATIN], the logD in “physchem [2]” (pH 7.4, LogD7.4) was -0.76. Further, the unbound share (fraction unbound) at 5 h was 0.349 in the series “in vitro [7]” and 0.608 in the series “in vitro [4]”. Moreover, the microsomal CLint in “in vitro [5]” (microsomes) is < 3 µL/min/mg. Besides, the intrinsic clearance (hepatocyte CLint) was 27 µL/min/1e6 cells in the series “in vitro [8]” and < 3 µL/min/1e6 cells in “in vitro [9]”.

With `C[C@H](CO)Nc1nc(SCc2ccccc2)nc2[nH]c(=O)sc12`, in the series “physchem [2]” (pH 7.4, LogD7.4), the pH-dependent lipophilicity (logD) was 2.86. This compound also showed a solubility (thermodynamic) in the series “physchem [6]” of 53.7 µM (≈ 18.7 µg/mL). For the same compound, the fraction unbound at 5 h in the series “in vitro [3]” (PPB) is 0.0029; in “in vitro [4]”, 0.0219. Moreover, the microsomal CLint in “in vitro [5]” (liver microsomes) turned out to be 4 µL/min/mg. The figures for the hepatocyte CLint in the series “in vitro [8]” and in the series “in vitro [9]” were < 3 µL/min/1e6 cells and 19.4 µL/min/1e6 cells, respectively.

As to `N#Cc1cccc(-c2cc(C(F)(F)F)ccc2OCC(=O)O)c1`, the log distribution coefficient (logD) in the series “physchem [2]” (pH 7.4, LogD7.4) is 0.05. The fraction unbound at 5 h in “in vitro [3]” (PPB) is 0.0139; in “in vitro [7]” it was 0.035; in the series “in vitro [4]”, 0.0358. For the same compound, the intrinsic clearance (microsomal CLint) in “in vitro [5]” (liver microsomes) was < 3 µL/min/mg. Also, the intrinsic metabolic clearance (hepatocyte CLint) in “in vitro [8]” and in “in vitro [9]” was < 3 µL/min/1e6 cells in each case.

For the compound `O=C(O)COc1ccc(Cl)cc1CN1CCN(S(=O)(=O)c2ccc(F)cc2)CC1`, in “physchem [2]” (pH 7.4, LogD7.4), the log distribution coefficient (logD) stood at 0.99. Further, the results for the unbound share (fraction unbound) at 5 h in the series “in vitro [3]” (PPB), in the series “in vitro [7]” and in the series “in vitro [4]” were 0.0101, 0.089 and 0.0768, respectively. In addition, the hepatocyte CLint in the series “in vitro [8]” and in the series “in vitro [9]” was < 3 µL/min/1e6 cells each time.

In “physchem [1]”, `O=C(NCC12CC3CC(CC(C3)C1)C2)c1cc(OC2CCNCC2)ccc1Cl` yielded a pKa of 9. In the series “physchem [2]” (pH 7.4, LogD7.4), this compound returned a logD of 1.83. Besides, in “in vitro [4]”, the fraction unbound at 5 h was 0.0768. This compound also had an intrinsic clearance (microsomal CLint) in “in vitro [5]” (microsomes) of 28 µL/min/mg.

As to `CCC(=O)O[C@]1(C(=O)SCF)[C@H](C)C[C@H]2[C@@H]3C[C@H](F)C4=CC(=O)C=C[C@]4(C)[C@@]3(F)[C@@H](O)C[C@@]21C` [FLUTICASONE PROPIONATE], the fraction unbound at 5 h in the series “in vitro [3]” (PPB) is 0.0191; in the series “in vitro [7]” it was 0.0153; in “in vitro [4]”, 0.0116. Also, the values for the hepatocyte CLint in the series “in vitro [8]” and in “in vitro [9]” were 107 µL/min/1e6 cells and > 150 µL/min/1e6 cells, respectively.

In “physchem [1]”, `O=C(O)COc1ccc(Cl)cc1CN1CCN(S(=O)(=O)c2ccccc2)CC1` displayed a pKa of 6.8. This compound also registered a pH-dependent lipophilicity (logD) in the series “physchem [2]” (pH 7.4, LogD7.4) of 0.49. For the same compound, the results for the fraction unbound at 5 h in the series “in vitro [3]” (PPB), in the series “in vitro [7]” and in the series “in vitro [4]” were 0.0383, 0.132 and 0.04, respectively.

In the series “physchem [2]” (pH 7.4, LogD7.4), `C[C@H](CO)Nc1[nH]c(SCc2ccccc2F)nc2nc(=O)sc1-2` showed a pH-dependent lipophilicity (logD) of 3. Besides, the solubility (thermodynamic) in “physchem [6]” stood at 8.1 µM (≈ 2.97 µg/mL). Moreover, the fraction unbound at 5 h in “in vitro [4]” was 0.0171. In addition, in “in vitro [5]” (liver microsomes), the microsomal CLint was 3 µL/min/mg. Besides, the intrinsic clearance (hepatocyte CLint) worked out at 28 µL/min/1e6 cells in “in vitro [8]” and 30.1 µL/min/1e6 cells in the series “in vitro [9]”.

`CCCc1nn(C)c2c(=O)[nH]c(-c3cc(S(=O)(=O)N4CCN(C)CC4)ccc3OCC)nc12` registered a logD in the series “physchem [2]” (pH 7.4, LogD7.4) of 2.8. Moreover, the fraction unbound at 5 h in “in vitro [3]” (PPB) is 0.0447; in “in vitro [7]”, 0.0988; in “in vitro [4]”, 0.176. This compound also came in with an intrinsic clearance (microsomal CLint) in the series “in vitro [5]” (liver microsomes) of 132 µL/min/mg. The hepatocyte CLint is > 150 µL/min/1e6 cells in “in vitro [8]” and 16.6 µL/min/1e6 cells in the series “in vitro [9]”.

Compound `CC(C)(C)NC(=O)c1ccc(Oc2cc(F)c(CC(=O)O)cc2Cl)c(NS(=O)(=O)c2ccc(C3CC3)cc2Cl)c1` [VIDUPIPRANT] gave a thermodynamic solubility in the series “physchem [6]” of 851 µM (≈ 519 µg/mL). Besides, the values for the fraction unbound at 5 h in the series “in vitro [3]” (PPB) and in “in vitro [4]” were 0.0015 and 0.0039, respectively. Also, the intrinsic metabolic clearance (microsomal CLint) in “in vitro [5]” (liver microsomes) is < 3 µL/min/mg. The hepatocyte CLint in “in vitro [8]” and in “in vitro [9]” was 6 µL/min/1e6 cells in each case.

`CCCCC1=NC2(CCCC2)C(=O)N1Cc1ccc(-c2ccccc2-c2nnn[nH]2)cc1` [IRBESARTAN] displayed a thermodynamic solubility in the series “physchem [6]” of 891 µM (≈ 382 µg/mL). Besides, the fraction unbound at 5 h in “in vitro [4]” is 0.0146. Moreover, the intrinsic metabolic clearance (microsomal CLint) in the series “in vitro [5]” (microsomes) came to 17.8 µL/min/mg. Also, the intrinsic clearance (hepatocyte CLint) in “in vitro [8]” worked out at 9.01 µL/min/1e6 cells; in “in vitro [9]”, 10.5 µL/min/1e6 cells.

`CCN(CC)CCN1C(=O)[C@@](O)(c2ccccc2Cl)c2c1cc(C(N)=O)cc2C(F)(F)F` returned a logD in “physchem [2]” (pH 7.4) of 2.4. Further, the unbound share (fraction unbound) at 5 h in the series “in vitro [3]” was 0.289; in “in vitro [7]” it was 0.212; in the series “in vitro [4]” it was 0.19. Also, the microsomal CLint in “in vitro [5]” (microsomes) stood at 93.3 µL/min/mg. For the same compound, the hepatocyte CLint in “in vitro [8]” turned out to be 56.2 µL/min/1e6 cells; in “in vitro [9]”, 11.5 µL/min/1e6 cells.

These data come from ChEMBL document CHEMBL3301361, “Experimental in vitro DMPK and physicochemical data on a set of publicly disclosed compounds”.
